Experiments:
[1] = tested on: Staphylococcus aureus; assay: Zones of inhibition around 3D-printed coupons on S. aureus plated on Tryptic soy agar (Example 1); type: cell-based; conditions: 3D-printed PLA coupon (25 mm diameter) comprising 1% tobramycin; shiny side down; TSA; 72 h at 37° C.
Procedure: The 1% tobramycin/PLA filament was supplied to the extrusion nozzle of a STRATASYS® MOJO® FDM® 3D printer (STRATASYS and MOJO are registered trademarks of Stratasys Inc., Eden Prairie, Minn., USA) to print replicate test coupons with an extrusion temperature of 205° C. […] Control coupons having the same physical dimensions and appearance as the test coupons, were printed with the STRATASYS® MOJO® FDM® 3D printer by feeding the control PLA filament through the extrusion nozzle at an extrusion temperature of 205° C.
Aliquots of a culture of Staphylococcus aureus grown in Tryptic soy broth (TSB) were plated onto the surface of Tryptic soy agar (TSA) contained within Petri plates. Two test coupons were placed onto the plated S. aureus culture in a Petri plate with one shiny side down and one matte side down. Two control coupons were placed onto the plated S. aureus culture in a Petri plate with one shiny side down and one matte side down. Triplicate plates were prepared with test coupon and with control coupons. The Petri plates were incubated for 72 h at 37° C. after which, the plates were examined for the occurrence of zones of inhibition around the coupons. No inhibition of the growth of S. aureus in the Petri plates receiving the control coupons. […]

[2] = tested on: S. aureus; assay: Elution of antibiotics from 3D-printed coupons assessed by inhibition of growth of S. aureus on Meuller Hinton agar (Examples 3 and 4); type: cell-based, Staphylococcus aureus; conditions: about 72 hrs, 35-37° C., 25 = coupon diameter = no inhibition; for zone of inhibition, articles comprising PLA, antibiotic concentration 1%: 1% w/w antibiotic in PLA coupon; for zone of inhibition, articles comprising PLA, antibiotic concentration 2%: 2% w/w antibiotic in PLA coupon; for zone of inhibition, articles comprising PLA, antibiotic concentration 5%: 5% w/w antibiotic in PLA coupon; for zone of inhibition, articles comprising PCL polymer, antibiotic concentration 1%: 1% w/w antibiotic in PCL coupon; for zone of inhibition, articles comprising PCL polymer, antibiotic concentration 2%: 2% w/w antibiotic in PCL coupon; for zone of inhibition, articles comprising PCL polymer, antibiotic concentration 5%: 5% w/w antibiotic in PCL coupon
Procedure: Control coupons having the same physical dimensions and appearance as the test coupons, were printed with the […]® MOJO® printer by feeding the control filaments through the extrusion nozzle. The 2% and 5% tobramycin/PLA test coupons were printed with an extrusion temperature of 170° C., while the PLA control coupons and the 1% tobramycin/PLA test coupons were printed with an extrusion temperature of 205° C. The N12 control coupons, the 1%, 2%, and 5% gentamicin/N12 coupons, and the 1%, 2%, and 5% vancomycin/N12 coupons were printed at an extrusion temperature of 195° C. The remaining control coupons and test coupons were printed with an extrusion temperature of 170° C. The elution of antibiotics from the test coupons produced in Example 2 was assessed by the inhibition of the growth of S. aureus on the surfaces of Meuller Hinton agar contained within Petri dishes onto which test coupons placed. S. aureus cultures were grown on TSA amended with 5% sheep blood. A sufficient amount of S. aureus culture was transferred from the TSA culture plates to a 0.85% sterile saline solution to provide a uniform suspension that fell within a 0.5-2.0 McFarland turbidity standard. Aliquots of the S. aureus culture were plated onto Meuller Hinton agar in Petri dishes after which, two test coupons/dish (or alternatively, control coupons) were placed on the agar; one with its shiny side up and the other with its matte side up. The Meuller Hinton agar-containing Petri dishes were then incubated for about 72 hrs at temperatures in the range of about 35° C. to about 37° C. The zones of inhibition around each coupon were then measured and recorded (in mm) A clear zone around a test coupon indicates the inhibition of growth of S. aureus. […] The data shown in Tables 10, 11, and 12 confirm that all three antibiotics tested, i.e., tobramycin, gentamicin, and vancomycin, were eluted from articles printed with extruded antibiotic-containing polymers as evidenced by zones of inhibition of S. aureus cultures by articles comprising PLA polymer (Table 10), inhibition of S. aureus cultures by articles comprising PCL polymer (Table 11), and inhibition of S. aureus cultures by articles comprising HPDE polymer (Table 12). […] The control coupons for this study were taken from the batch of control coupons produced in Example 1. […] The data shown in Table 14 confirm that the three antibiotics were eluted from articles printed with extruded polymers comprising the three antibiotics.

Row | Compound | zones of inhibition in the growth of S. aureus around the shiny surfaces [1] | zone of inhibition, articles comprising HDPE polymer, antibiotic concentration 1% ([2]; 1% w/w antibiotic in HDPE coupon) | zone of inhibition, articles comprising PLA, antibiotic concentration 1% [2] | zone of inhibition, articles comprising HDPE polymer, antibiotic concentration 2% ([2]; 2% w/w antibiotic in HDPE coupon) | zone of inhibition, articles comprising PLA, antibiotic concentration 2% [2] | zone of inhibition, articles comprising HDPE polymer, antibiotic concentration 5% ([2]; 5% w/w antibiotic in HDPE coupon) | zone of inhibition, articles comprising PLA, antibiotic concentration 5% [2] | zone of inhibition, articles comprising PCL polymer, antibiotic concentration 1% [2] | zone of inhibition, articles comprising PCL polymer, antibiotic concentration 2% [2] | zone of inhibition, articles comprising PCL polymer, antibiotic concentration 5% [2]
1 | NC[C@H]1O[C@H](O[C@H]2[C@H](O)[C@@H](O[C@H]3O[C@H](CO)[C@@H](O)[C@H](N)[C@H]3O)[C@H](N)C[C@@H]2N)[C@H](N)C[C@@H]1O [Tobramycin, tobramycin] | 37.7 mm | 27.0 mm | 37.7 mm | 28.5 mm | 27.5 mm | 37.5 mm | 28 mm |  |  | 
2 | gentamicin |  |  | 34.0 mm |  | 26.5 mm |  | 37.5 mm | 32.0 mm | 38.5 mm | 41.0 mm
3 | CN[C@H](CC(C)C)C(=O)N[C@H]1C(=O)N[C@@H](CC(N)=O)C(=O)N[C@H]2C(=O)N[C@H]3C(=O)N[C@H](C(=O)N[C@H](C(=O)O)c4cc(O)cc(O)c4-c4cc3ccc4O)[C@H](O)c3ccc(c(Cl)c3)Oc3cc2cc(c3O[C@@H]2O[C@H](CO)[C@@H](O)[C@H](O)[C@H]2O[C@H]2C[C@](C)(N)[C@H](O)[C@H](C)O2)Oc2ccc(cc2Cl)[C@H]1O [Vancomycin, vancomycin] |  |  |  |  |  |  |  | 28.5 mm | 25 mm | 28.5 mm

Reference: patent US20150290280A1, “ANTIMICROBIAL ARTICLES PRODUCED BY ADDITIVE MANUFACTURING” (ORTHOPAEDIC INNOVATION CENTER INC., priority 2012, published 2015)
